Results published in US10174067B2, “Type of cytidine derivative and application thereof” (priority 2014, dated 2019).
Marks after values point to notes of the source that are not given here.

Legend:
[1] = Protocol: To determine the growth inhibition effect and toxicity of the cytidine derivative samples of the present invention on the transplanted tumor of nude mice bearing colon cancer HCT-116.
(§1) The corresponding amount of test substance was taken in a 5 mL glass tube and dissolved in ethanol with a 5 mm magnetic stirrer for stirring. After dissolving completely, Cremophor EL was added with continuous stirring. The marked amount of saline was added and mixed evenly before use. The volume ratio of ethanol, Cremophor EL, and physiological saline was 5:5:90.
Varieties and lines; Balb/c Nude mice; level: SPF; sex: female.
4.2 Animal inoculation and grouping: Each nude mouse was inoculated subcutaneously with 0.1 mL of cell suspension (3×10^6 cell/mouse) at right side of hind limb in a sterile stale. When the tumor grew to about 60-150 mm^3, the nude mice with similar tumor volume and desirable shape were selected (it would be better to select single spherical shape, no irregular shape or multiple tumors grouped together) for grouping, 6 mice a group. The grouping is as follows:
The control group, namely the model control group, was injected with a mixture of ethanol, Cremophor EL, and saline (5:5:90).
Those mice were weighed three times a week.
All clinical symptoms of each animal should be recorded at the beginning of the test and during the test. The observations should be made at the same time each day.
An animal would be killed by CO2 when its weight loss was more than 20%, when it was about to die, or when its tumor volume exceeded 2800 mm^3. The tumor was separated and weighed, and the animal was autopsied and observed to evaluate and record whether there were pathological changes in the organs.
The data were expressed as Mean±SEM unless specially provided; Non-pairing T test was performed for the data between the two groups. P<0.05 was considered as significant difference.

[2] = system: HCT-116 colon cancer xenografts; assay: Tumor growth inhibition of HCT-116 colon cancer xenografts in tumor-bearing nude mice (tumor volume, TGI %, RTV, T/C %); assay type: in vivo, Balb/c Nude mice
Protocol: 4.1 Tumor cells: colon cancer HCT-116 cells, purchased from the Institute of Cell Biology, Chinese Academy of Sciences. The cells were incubated by F-12 medium (containing 10% FBS) in carbon dioxide incubator at 37° C. and in saturated humidity, with 5% CO2 and 95% air in volume fraction. Before inoculation, the cells at logarithmic phase were taken, and digested with 0.25% trypsin, washed once with PBS and resuspended in PBS for counting. The cells were resuspended in serum-free medium and adjusted to about 3×10^7 cell/mL.
The grouping is as follows:
The formations of tumor at the inoculation site of each group of nude mice were observed. The diameter of tumor nodule (D) was measured three times a week with round hole ruler, and the volume of tumor nodule (V) was calculated according to the following formula: […].
Anti-tumor activity was evaluated by tumor growth inhibition rate TGI (%) and relative tumor proliferation rate T/C (%).
The relative tumor volume (RTV) was calculated as: RTV=Vt/V0, where V0 was the tumor volume when they were grouped and administered, and Vt was the tumor volume at the time of measurement.
The relative proliferation rate T/C (%) was calculated as: […].
TRTV: RTV of the treatment group; CRTV: RTV of the control group.
P<0.05 was considered as significant difference.

[3] = system: ICR mice; assay: in vivo; settings: female ICR mice; single-dose ip
Protocol: This experiment was to investigate the toxic effects of single-dose intraperitoneal administration on ICR mice and determine the maximum tolerated dose (MTD) of each subject. Maximum tolerated dose (MTD) refers to the dose that may not cause an animal to die, may not cause the animal to suffer weight loss exceeding 10% (compared with Day 0), or may not produce significant side effects.
as §1
Varieties and lines: ICR mice; level: SPF; sex: female.
Method of administration: ip. The dose was reduced in case of animal death, till an animal survived; the dose was increased in case of no animal death; the test was ended when the animals survived normally at the given high dose. Finally, the MTD of the mice on the test substances was determined according to the test results. The animals were observed continuously for 7 days after acute administration.
During the experiment, all animals were under detailed and continuous clinical observation for […], twice a day (10:00 am, 16:00 pm) after administration. The observation included but not limited to: skin, hair, ear, nose, mouth, chest, abdomen, external genitalia, limbs and feet, respiratory and circulatory system, autonomic effects (such as salivation), nervous system (such as tremor, convulsions, stress response and abnormal behavior).
The body of animals was weighed before administration, and then weighed and recorded at the same time each day.
The observation results, animal body weight, and animal survival after one week of administration were recorded in detail every day.

[4] = Day 0, G3-G9 groups, single IP dose, Mean±SEM
[5] = Day 4, G3-G9 groups, single IP dose, Mean±SEM
[6] = Day 6, G3-G9 groups, single IP dose, Mean±SEM
[7] = Day 8, G3-G9 groups, single IP dose, Mean±SEM
[8] = Day 11, G3-G9 groups, single IP dose, Mean±SEM
[9] = Day 13, G3-G9 groups, single IP dose, Mean±SEM
[10] = Day 15, G3-G9 groups, single IP dose, Mean±SEM
[11] = Day 18, G3-G9 groups, single IP dose, Mean±SEM
[12] = Day 20, G3-G9 groups, single IP dose, Mean±SEM
[13] = Day 22, G3-G9 groups, single IP dose, Mean±SEM

O=C(Nc1ccn([C@@H]2O[C@H](CO)[C@@H](O)C2(F)F)c(=O)n1)OCc1ccccc1 [Compound G4, 4-N-(carboxybenzyl)-2′-deoxy-2′,2′-difluorocytidine]
Weight change rate, Day 0 [1, 4]: 0.00 ± 0.00%
Weight of mice, Day 0 [1, 4]: 20.20 ± 0.55 g
weights of animals on Day 4 after administration ([1]; Day 4 (G7: Day 4 and Day 6), p<0.05): significantly reduced
Weight change rate, Day 4 [1, 5]: −10.91 ± 3.45 %
Weight of mice, Day 4 [1, 5]: 18.22 ± 1.19 g
weight loss rate on Day 4 after administration ([1]; Day 4, G4 350 mg/kg, G5 325 mg/kg, G7 250 mg/kg, single IP): 10.91±3.45%
animals died on Day 4 after administration ([1]; Day 4, G4 350 mg/kg, G8 350 mg/kg, G6 300 mg/kg, single IP, 6 mice a group): 1
Weight change rate, Day 6 [1, 6]: −1.87 ± 2.96%
Weight of mice, Day 6 [1, 6]: 20.06 ± 1.18 g
Weight change rate, Day 8 [1, 7]: 0.30 ± 1.84%
Weight of mice, Day 8 [1, 7]: 20.48 ± 0.97 g
Weight change rate, Day 11 [1, 8]: 3.85 ± 5.08%
Weight of mice, Day 11 [1, 8]: 21.08 ± 0.76 g
Weight change rate, Day 13 [1, 9]: 7.64 ± 4.55%
Weight of mice, Day 13 [1, 9]: 21.86 ± 0.67 g
Weight change rate, Day 15 [1, 10]: 8.84 ± 4.33%
Weight of mice, Day 15 [1, 10]: 22.10 ± 0.57 g
Weight change rate, Day 18 [1, 11]: 9.28 ± 3.53 %
Weight of mice, Day 18 [1, 11]: 22.20 ± 0.43 g
Weight change rate, Day 20 [1, 12]: 10.50 ± 4.03 %
Weight of mice, Day 20 [1, 12]: 22.44 ± 0.49 g
Weight change rate, Day 22 [1, 13]: 11.39 ± 4.05%
Weight of mice, Day 22 [1, 13]: 22.62 ± 0.49 g
Day 22 Mortality ([1]; Day 22, single IP dose (mg/kg)): 17%
body weight compared with model control group ([1]; G4 Day 18 to Day 20 (p<0.05), G5 Day 13 to Day 20 (p<0.05~0.01)): significantly increased
clinical symptoms ([1]; after single IP dose, compared with model control group): 3 animals had less activity, loss of body weight, and body surface temperature lower than normal
Day 0 (RTV) [2, 4]: 1.00 ± 0.00
Tumor volume, Day 0 [2, 4]: 63.44 ± 18.74** mm^3
Day 4 (TGI %) ([2]; Day 4, G3-G9 groups, single IP dose): 83.29%
Day 4 (RTV) [2, 5]: 0.70 ± 0.13
Tumor volume, Day 4 [2, 5]: 44.53 ± 13.75** mm^3
Day 6 (TGI %) ([2]; Day 6, G3-G9 groups, single IP dose): 89.82%
Day 6 (RTV) [2, 6]: 0.68 ± 0.10
Tumor volume, Day 6 [2, 6]: 43.04 ± 10.69** mm^3
Day 8 (TGI %) ([2]; Day 8, G3-G9 groups, single IP dose): 91.66%
Day 8 (RTV) [2, 7]: 0.69 ± 0.13
Tumor volume, Day 8 [2, 7]: 43.83 ± 12.73** mm^3
tumor inhibition effect ([2]; Day 8 to Day 13 after single-dose intraperitoneal administration): good tumor inhibition effect
Day 11 (TGI %) ([2]; Day 11, G3-G9 groups, single IP dose): 92.58%
Day 11 (RTV) [2, 8]: 1.12 ± 0.29
Tumor volume, Day 11 [2, 8]: 59.68 ± 11.72** mm^3
Day 13 (TGI %) ([2]; Day 13, G3-G9 groups, single IP dose): 92.57%
Day 13 (RTV) [2, 9]: 1.51 ± 0.39
Tumor volume, Day 13 [2, 9]: 86.22 ± 24.86** mm^3
Day 15 (TGI %) ([2]; Day 15, G3-G9 groups, single IP dose): 90.04%
Day 15 (RTV) [2, 10]: 2.80 ± 0.97
Tumor volume, Day 15 [2, 10]: 140.70 ± 34.22** mm^3
Day 18 (TGI %) ([2]; Day 18, G3-G9 groups, single IP dose): 85.93%
Day 18 (RTV) [2, 11]: 5.36 ± 1.82
Tumor volume, Day 18 [2, 11]: 260.52 ± 51.15** mm^3
Day 20 (TGI %) ([2]; Day 20, G3-G9 groups, single IP dose): 78.95%
Day 20 (RTV) [2, 12]: 9.65 ± 3.23
Tumor volume, Day 20 [2, 12]: 446.16 ± 65.85** mm^3
Day 22 (TGI %) ([2]; Day 22, G3-G9 groups, single IP dose): 75.68%
Day 22 (RTV) [2, 13]: 14.66 ± 5.30
Tumor volume, Day 22 [2, 13]: 636.07 ± 78.89** mm^3
T/C % on Day 22 ([2]; Day 22, G4 350 mg/kg, G5 325 mg/kg, G7 250 mg/kg, single IP): 75.38%
relative tumor volume compared with the model control group ([2]; G4 and G5 Day 4 to Day 18, G7 Day 4 to Day 15 (p<0.05-0.01), G9 only Day 4 (p<0.05)): reduced significantly
maximum value of TGI % ([2]; day of maximum: G3 Day 8, G4 Day 11, G5 Day 11, G9 Day 4, G7 Day 8, single IP): 92.58%
minimum value of T/C % ([2]; day of minimum: G4 Day 13, G5 Day 11, G7 Day 8, single IP): 17.62%
dose that could be tolerated (maximum tolerated dose, MTD) [3]: 350 mg/kg
